# Measurements reported in patent US12428380B2 (PSYLO PTY LTD, priority 2023, dated 2025).
# Tests used:
# Type in all cases: cell-based
# 5-HT2C = target: T1, 5-HT2C (Homo sapiens, UniProt P28335); experiment: FLIPR Ca2+ flux functional assay, 5-HT2C (HEK293); conditions: HEK293 cells expressing 5-HT2C; for Emax: HEK293, agonist activity; for EC50: agonist activity
# T1 construct: host or cells: HEK293
# T1 sequence (P28335 33-458): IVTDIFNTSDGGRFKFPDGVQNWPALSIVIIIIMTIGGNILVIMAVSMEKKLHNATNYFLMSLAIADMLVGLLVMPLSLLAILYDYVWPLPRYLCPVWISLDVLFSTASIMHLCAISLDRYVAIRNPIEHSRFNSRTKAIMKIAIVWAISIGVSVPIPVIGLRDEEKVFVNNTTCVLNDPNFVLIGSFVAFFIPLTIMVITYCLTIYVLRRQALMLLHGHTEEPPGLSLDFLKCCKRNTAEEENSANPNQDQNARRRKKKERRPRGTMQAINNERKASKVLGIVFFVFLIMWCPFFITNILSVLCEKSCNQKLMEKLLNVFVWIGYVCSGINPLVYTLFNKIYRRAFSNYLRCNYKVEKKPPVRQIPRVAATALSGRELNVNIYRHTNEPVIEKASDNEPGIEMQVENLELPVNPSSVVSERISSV
# 5-HT2B = target: T2, 5-HT2B (Homo sapiens, UniProt P41595); experiment: Activation in a similar Ca2+ flux assay at a single concentration, 5-HT2B; conditions: head prints 10 µM
# T2 construct: host or cells: CHO-K1
# Experimental: Activity at 5-HT2A, 5-HT2B and 5-HT2C receptors was determined using a FLIPR Ca2+ flux assay at WuXi AppTec Co. Ltd. (Hong Kong) Discovery Biology Unit according to their standard protocols. Briefly, stably transfected cells expressing the receptor of interest (HEK293 for 5-HT2A and 5-HT2C; CHO-K1 for 5-HT2B) were grown and plated in a 384 well plate and incubated at 37° C. and 5% CO2 overnight. A 250 mM stock solution of probenecid in FLIPR calcium assay buffer (10 mL) was freshly prepared and combined with a fluorescent dye (Fluo-4 Direct) to give a final assay concentration of 2.5 mM. Reference compounds were 4-fold serially diluted and the screening compounds were 3-fold serially diluted in 100% DMSO for 10 points using Agilent Bravo, and 750 nL was added to a 384 well compound plate using Echo along with 30 μL assay buffer. The fluorescent dye was then added to the assay plate along with assay buffer to a final volume of 40 μL. The cell plate was incubated for 50 min at 37° C. and 5% CO2 and placed into the FLIPR Tetra along with the compound plate. 10 μL of references and compounds were then transferred from the compound plate into the cell plate and the fluorescent signal was read.
# Activation data are provided in a similar assay tested at a single 10 μM concentration.
# 5-HT2A = target: T3, 5-HT2A (Homo sapiens, UniProt P28223); experiment: FLIPR Ca2+ flux functional assay, 5-HT2A (HEK293); conditions: HEK293 cells expressing 5-HT2A; for Emax: HEK293, agonist activity; for EC50: agonist activity
# T3 construct: host or cells: HEK293
# T3 sequence (P28223 whole entry): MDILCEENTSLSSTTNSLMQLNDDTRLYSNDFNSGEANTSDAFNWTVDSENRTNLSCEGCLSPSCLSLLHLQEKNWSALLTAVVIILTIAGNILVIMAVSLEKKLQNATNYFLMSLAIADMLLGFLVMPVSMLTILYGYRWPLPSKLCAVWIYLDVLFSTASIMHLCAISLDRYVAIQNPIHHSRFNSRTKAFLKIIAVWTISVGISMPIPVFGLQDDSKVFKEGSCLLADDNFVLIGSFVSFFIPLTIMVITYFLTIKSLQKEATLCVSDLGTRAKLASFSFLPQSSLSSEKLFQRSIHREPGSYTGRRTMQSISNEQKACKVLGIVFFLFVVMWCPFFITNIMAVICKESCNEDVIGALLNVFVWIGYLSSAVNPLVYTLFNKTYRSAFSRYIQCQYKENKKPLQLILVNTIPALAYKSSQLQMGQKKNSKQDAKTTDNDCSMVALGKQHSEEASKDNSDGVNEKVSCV
# T2 sequence (P41595 whole entry, species assumed): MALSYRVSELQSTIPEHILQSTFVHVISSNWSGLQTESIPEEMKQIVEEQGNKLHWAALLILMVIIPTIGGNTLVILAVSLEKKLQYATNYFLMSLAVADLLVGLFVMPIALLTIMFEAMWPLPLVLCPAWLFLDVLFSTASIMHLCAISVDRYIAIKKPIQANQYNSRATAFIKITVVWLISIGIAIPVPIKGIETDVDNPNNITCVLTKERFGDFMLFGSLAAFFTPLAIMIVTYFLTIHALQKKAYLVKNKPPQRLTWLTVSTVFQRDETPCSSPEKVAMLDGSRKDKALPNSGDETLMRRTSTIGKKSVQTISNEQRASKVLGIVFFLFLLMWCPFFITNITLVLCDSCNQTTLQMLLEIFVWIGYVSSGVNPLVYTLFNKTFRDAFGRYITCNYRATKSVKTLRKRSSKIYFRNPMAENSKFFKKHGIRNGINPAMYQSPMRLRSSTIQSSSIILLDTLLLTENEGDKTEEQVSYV
SMILES,Emax (5-HT2C) [%],EC50 (5-HT2C) [nM],5-HT2B % Activation @ 10 µM (5-HT2B) [%],Emax (5-HT2A) [%],EC50 (5-HT2A) [nM]
"CN(C)CCc1n[nH]c2c(F)cc(F)cc12 [Example A35, 2-(5,7-difluoro-1H-indazol-3-yl)-N,N-dimethylethan-1-amine]",54,495,1,72,213
"CCN(C)CCc1n[nH]c2c(F)cc(F)cc12 [Example A36, 2-(5,7-difluoro-1H-indazol-3-yl)-N-ethyl-N-methylethan-1-amine]",55,732,0,70,361
"CC(C)N(C)CCc1n[nH]c2c(F)cc(F)cc12 [Example A37, N-(2-(5,7-difluoro-1H-indazol-3-yl)ethyl)-N-methylpropan-2-amine]",11,> 10000,0,57,810
"COc1cc(F)cc2[nH]nc(CCN(C)C)c12 [Example A38, 2-(6-fluoro-4-methoxy-1H-indazol-3-yl)-N,N-dimethylethan-1-amine]",75,203,0,77,75
"CCN(C)CCc1n[nH]c2cc(F)cc(OC)c12 [Example A39, N-ethyl-2-(6-fluoro-4-methoxy-1H-indazol-3-yl)-N-methylethan-1-amine]",78,375,0,75,116
"COc1cc(F)cc2[nH]nc(CCN(C)C(C)C)c12 [Example A40, N-(2-(6-fluoro-4-methoxy-1H-indazol-3-yl)ethyl)-N-methylpropan-2-amine]",68,> 10000,0,72,322
"COc1cc(F)cc2[nH]nc(CCN3CCC4CC43)c12 (stereo not drawn) [Example A43, 3-(2-(2-azabicyclo[3.1.0]hexan-2-yl)ethyl)-6-fluoro-4-methoxy-1H-indazole]",99,39.9,102,89,29.7
"COc1ccc(F)c2[nH]nc(CCN(C)C)c12 [Example A44, 2-(7-fluoro-4-methoxy-1H-indazol-3-yl)-N,N-dimethylethan-1-amine]",44,222,0,52,93
"CCN(C)CCc1n[nH]c2c(F)ccc(OC)c12 [Example A45, N-ethyl-2-(7-fluoro-4-methoxy-1H-indazol-3-yl)-N-methylethan-1-amine]",61,614,0,67,163
"COc1ccc(F)c2[nH]nc(CCN(C)C(C)C)c12 [Example A46, N-(2-(7-fluoro-4-methoxy-1H-indazol-3-yl)ethyl)-N-methylpropan-2-amine]",0,> 10000,0,74,133
"COc1ccc(F)c2[nH]nc(CCN3CCC3)c12 [Example A47, 3-(2-(azetidin-1-yl)ethyl)-7-fluoro-4-methoxy-1H-indazole]",72,64,17,88,105
"COc1ccc(F)c2[nH]nc(CCN3CCC4CC43)c12 (stereo not drawn) [Example A49, 3-(2-(2-azabicyclo[3.1.0]hexan-2-yl)ethyl)-7-fluoro-4-methoxy-1H-indazole]",59,166,7,69,216
"COc1cc(F)c2[nH]nc(CCN(C)C)c2c1 [Example A50, 2-(7-fluoro-5-methoxy-1H-indazol-3-yl)-N,N-dimethylethan-1-amine]",11,> 10000,2,79,242
"CCN(C)CCc1n[nH]c2c(F)cc(OC)cc12 [Example A51, N-ethyl-2-(7-fluoro-5-methoxy-1H-indazol-3-yl)-N-methylethan-1-amine]",43,1370,1,85,88
"COc1cc(F)c2[nH]nc(CCN(C)C(C)C)c2c1 [Example A52, N-(2-(7-fluoro-5-methoxy-1H-indazol-3-yl)ethyl)-N-methylpropan-2-amine]",0,> 10000,0,42,650
"COc1cc(F)c2[nH]nc(CCN3CCC3)c2c1 [Example A53, 3-(2-(azetidin-1-yl)ethyl)-7-fluoro-5-methoxy-1H-indazole]",48,1180,0,94,318
"COc1cc(F)c2[nH]nc(CCN3CCC4CC43)c2c1 (stereo not drawn) [Example A55, 3-(2-(2-azabicyclo[3.1.0]hexan-2-yl)ethyl)-7-fluoro-5-methoxy-1H-indazole]",87,207,48,86.2,39.8
"COc1cc2c(CCN3CCC3)n[nH]c2cc1F [Example A56, 3-(2-(azetidin-1-yl)ethyl)-6-fluoro-5-methoxy-1H-indazole]",50,3070,11,90,105
"COc1cc2c(CCN3CC(C)C3)n[nH]c2cc1F [Example A57, 6-fluoro-5-methoxy-3-(2-(3-methylazetidin-1-yl)ethyl)-1H-indazole]",3,> 10000,0,70,610
"COc1cc2c(CCN3CCC3C)n[nH]c2cc1F (stereo not drawn) [Example A58, 6-fluoro-5-methoxy-3-(2-(2-methylazetidin-1-yl)ethyl)-1H-indazole]",19,> 10000,0,57,1130
"COc1cc2c(CCN3CCCC3)n[nH]c2cc1F [Example A59, 6-fluoro-5-methoxy-3-(2-(pyrrolidin-1-yl)ethyl)-1H-indazole]",66,3870,5,79,202
"COc1cc2c(CCN3CCC4CC43)n[nH]c2cc1F (stereo not drawn) [Example A60, 3-(2-(2-azabicyclo[3.1.0]hexan-2-yl)ethyl)-6-fluoro-5-methoxy-1H-indazole]",90,255,89,92,8.12
"COc1ccc2[nH]nc(CCNCc3ccccc3)c2c1 [Example A62, N-benzyl-2-(5-methoxy-1H-indazol-3-yl)ethan-1-amine]",85,179,0,81,29.1
"COc1ccc2[nH]nc(CCNCc3ccccc3OC)c2c1 [Example A63, 2-(5-methoxy-1H-indazol-3-yl)-N-(2-methoxybenzyl)ethan-1-amine]",88,32.5,11,92,2.24
"COc1ccc2[nH]nc(CCNCc3ccccc3F)c2c1 [Example A64, N-(2-fluorobenzyl)-2-(5-methoxy-1H-indazol-3-yl)ethan-1-amine]",82,602,0,79,68.7
"COc1ccc2[nH]nc(CCNCc3cccc(F)c3)c2c1 [Example A65, N-(3-fluorobenzyl)-2-(5-methoxy-1H-indazol-3-yl)ethan-1-amine]",81,891,1,70,91.6
"COc1cccc(CNCCc2n[nH]c3ccc(OC)cc23)c1 [Example A66, 2-(5-methoxy-1H-indazol-3-yl)-N-(3-methoxybenzyl)ethan-1-amine]",53,1260,0,63,50
